# In patent US7439024B2, “Methods and kits for diagnosing or monitoring autoimmune and chronic inflammatory diseases” (The United States of America as represented by the …, priority 2005, dated 2008):
# Tests used:
# [1] = system: CD70; settings: PHA-stimulated purified T cells, 3 days after treatment, oligonucleotide arrays, 2 independent experiments, mean±SEM
# [2] = system: CD70 mRNA; assay: Real time RT-PCR of CD70 transcripts relative to β-actin in drug-treated T cells; format: cell-based, human; settings: for CD70 transcripts relative to β-actin, normalized to the untreated control: CD4+ T cells stimulated with anti-CD3 + anti-CD28, 5 μm 5-azaC, 50 μm Pca, 20 μm Hyd, 40 μm U0126 or 25 μm PD98059 for 3 days, FIG. 9; for expression of CD70 mRNA relative to that of beta-actin vs untreated cells: T cells, real time RT-PCR, FIG. 1B
# Procedure: Cells and cell culture. Peripheral blood mononuclear cells (PBMCs) were isolated by density-gradient centrifugation. T cells were then isolated by E-rosetting (See, e.g., Golbus et at., Clin Immunol Immunopathol 46, 129 (1988)). […] Where indicated, the cells were cultured in RPMI 1640/10% fetal calf serum (FCS) supplemented with interleukin-2 (IL-2) (See, e.g., Richardson et at., Clin Immunol Immunopathol 55, 368 (1990)), in round-bottomed 5-ml culture tubes (FALCON). Cells were stimulated with 1 μg/ml of PHA (REMEL) for 16 hours, then cultured in 24-well plates at a density of 1×10^6 for an additional 72 hours in the presence of 2-deoxy-5-azaC or 5-azaC (SIGMA-ALDRICH), procainamide (SIGMA-ALDRICH), hydralazine (SIGMA-ALDRICH), or the MEK inhibitors U0126 (PROMEGA) or PD98059 (PROMEGA […]). In other studies, PHA-stimulated PBMCs were cultured in RPMI 1640/10% FCS and treated with indomethacin, chloroquine, hydrocortisone, and 6-mercaptopurine (6-MP) (all from SIGMA-ALDRICH). TT48E, a cloned, CD4+, tetanus toxoid-reactive human T cell line, was cultured as previously described (Comacchia et al., J Immunol 140, 2197 (1988); Richardson et al., Arthritis Rheum 35, 647 (1992)).
# (§1) In other studies, T cells were isolated by negative selection using magnetic beads and instructions provided by the manufacturer (Pan T cell Isolation Kit, Miltenyi), and the CD4+ or CD8+ subset was similarly isolated by magnetic cell sorting. […] Purified human CD4+ T cells were first stimulated with plate bound anti-CD3 and soluble anti-CD28.
# [3] = system: autologous B cells; assay: T cell and B cell costimulation assay, IgG ELISA of supernatants; format: cell-based, human; settings: P<0.05; for IgG produced by B cells cultured with drug-treated cloned T cells vs untreated T cells: TT48E cloned CD4+ T cell line treated 3 days, autologous B cells, without PWM, FIG. 4; for IgG secreted by B cells cultured with drug-treated T cells vs same numbers of untreated T cells: unfractionated PHA-stimulated T cells treated 3 days, cultured with PWM and autologous B cells 8 days, FIG. 3
# Procedure: T cell and B cell costimulation assays. E-rosette-purified T cells were stimulated for 16 hours with PHA and then treated with the indicated chemicals for an additional 72 hours as described above. Where indicated, T cell subsets were isolated by negative selection using magnetic beads (Miltenyi). B cells (1-4×10^5) enriched by negative selection using magnetic beads (Miltenyi) and assessed to be 70-85% pure using PE-conjugated anti-human CD21 (PHARMINGEN), were added to washed, drug-treated autologous T cells, at T cell to B cell ratios of 4:1, 2:1, 1:1, 1:2, and 1:4. Where indicated, 0.625 μg/ml of PWM (ALDRICH) was added. The cells were cultured in RPMI 1640/10% FBS/penicillin/streptomycin for 8 days in 96-well roundbottomed plates (Costar) containing a 200 μl total volume (performed in duplicate). Cells were supplemented with 50 μl of medium on day 4. Where indicated, 1 μg/ml of anti-CD70 monoclonal antibody (HNE51) (DAKO) was added to the cultures. TT48E cells were similarly stimulated with PHA (1 μg/ml) for 18 hours, treated with the indicated drugs for 3 days, then similarly cultured with autologous B cells for 8 days. Where indicated, the TT48E cells were pretreated with 1 μg/ml of anti-CD70 for 30 minutes at […], then washed and added to the B cells, according to protocols described by others (See, e.g., Kobata et at., Proc Natl Acad Sci U S A 92, 11249 (1995)).
# IgG enzyme-linked immunosorbent assays (ELISAs). IgG was measured in the supernatants of the T cell-B cell cultures (See, e.g., Richardson et al., Clin Immunol Immunopathol 55, 368 (1990)). Briefly, 96-well flatbottomed polystyrene plates (Costar) were coated with 1 μg/ml of goat anti-human IgG (Southern Biotech) and washed. Unreacted combining sites were sealed with 3% bovine serum albumin (BSA) in phosphate buffered saline (PBS) by incubation at 4° C. for 16 hours. Pooled supernatants from duplicate wells were diluted 1:5 in PBS/1% BSA, and 50 μl was added to the wells. Serial dilutions of purified human IgG (Sigma) were used for quantitation. Following incubation and washing, goat anti-human IgG conjugated with horseradish peroxidase (Southern Biotech) was added, and cells were incubated for 2 hours at room temperature. The wells were washed 3 times with PBS/0.1% Tween 20, and color was developed using Sigma Fast tablets. The plates were read at 405 nm using a SpectraMax spectrophotometer (Molecular Devices). All determinations were performed in quadruplicate.
# Since CD70 participates in T cell-dependent B cell stimulation (See e.g., Kobata et al., Proc Natl Acad Sci USA 92, 11249 (1995)), the effects of DNA methylation inhibitors on CD70-dependent B cell help were examined. […] Eight days later, total IgG in the supernatants was measured by ELISA. […]
# [4] = system: CD70 promoter; assay: Bisulfite sequencing of the CD70 promoter in drug-treated CD4+ T cells; format: cell-based, human; settings: for methylation of the 10 CG pairs in the CD70 promoter region between −515 and −423: CD4+ T cells stimulated with anti-CD3 and anti-CD28, vs stimulated untreated controls, FIGS. 13, 14
# Text: as §1
# Bisulfite sequencing. The putative CD70 promoter was identified using the published CD70 cDNA sequence and Tfsitescan software. Deoxycytosine (dC) and deoxymethylcytosine (d^mC) bases in the gene promoter and 5′ flanking sequences were identified by bisulfite treatment of purified DNA followed by nested PCR amplification of 3 sequential fragments to span the entire region. The primers were designed to avoid CG pairs and to account for the conversion of dC to dU by the bisulfite. EcoRI sites were added to the forward primers, and XbaI to the reverse, to facilitate cloning. The amplified fragments were then cloned into PBS+, and 5 clones sequenced for each fragment. The primers used were: […]
# The effect of lupus and DNA methylation inhibitors on a regulatory element in the CD70 promoter was examined. DNA was isolated from the CD4+ T cells of 7 healthy individuals or 6 lupus patients, bisulfite treated, the region from −466-−515, containing 6 CG pairs was amplified by PCR, and 5 fragments sequenced from each individual. The average methylation status of the 6 CG pairs for healthy versus lupus individuals is shown (FIG. 8, NI and Lupus, respectively). CD4+ T cells from 5 individuals were also stimulated with PHA, treated with the irreversible DNA methyltransferase inhibitor 5-azacytidine (5-azaC), and the methylation status of the 6 CG pairs similarly analyzed from the 25 fragments sequenced (FIG. 8, 5-azaC). […] Results are presented as the mean±SEM of the average methylation of the 6 CG pairs, measured from the 10-35 determinations/group.
# The effects of the DNA methylation inhibitors on the methylation status of this region were then compared. […] Again, 5 cloned fragments were sequenced from each control, for a total of 35 determinations per CG pair. […] FIG. 14 compares the average methylation for the 10 CG pairs (−515 to −423) in the T cells treated with DNA methylation inhibitors relative to stimulated, untreated controls.
# [5] = system: CD70; assay: Flow cytometric analysis of CD70 expression on T cells treated with DNA methylation inhibitors; format: cell-based, human; settings: for increase of CD70 expression on T cell clone TT48E: 3 days, 6 serial experiments; for increase of CD70 MFI on CD4+ T cells: CD4+ T cell subset; for CD70 expression on PHA-stimulated T cells, treated vs untreated: polyclonal T cells, 1 μM 5-azaC 3 days, procainamide increasing dosage, 25 μM PD98059 and dose response, 40 μM U0126 and dose response, FIG. 2; for CD70 expression on CD4+ T cells: summary statement in Example 8
# [6] = system: CD70; assay: CD70 expression on CD4+ cells of PBMCs cultured with medications commonly used to treat lupus (flow cytometry); format: cell-based, human; settings: PBMCs with or without PHA, 24 hours, graded concentrations 1-100 μM
Compound,"CD70 transcripts relative to β-actin, normalized to the untreated control [2]",methylation of the 10 CG pairs in the CD70 promoter region between −515 and −423 [4],"CD70 expression on PHA-stimulated T cells, treated vs untreated [5]",CD70 expression on CD4+ T cells [5],CD70 expression on stimulated or unstimulated CD4+ cells [6],further results
Nc1ncn([C@H]2C[C@H](O)[C@@H](CO)O2)c(=O)n1 [2-deoxy-5-azaC],,,,,,CD70 expression increase in treated cells relative to untreated controls [1]: 2.6±0.6 fold
"Nc1ncn([C@@H]2O[C@H](CO)[C@@H](O)[C@H]2O)c(=O)n1 [5-azaC, 5-azacytidine]",increase CD70 transcripts,hypomethylated compared to controls,small increase,increased CD70 expression,,"CD70 expression increase in treated cells relative to untreated controls [1]: > 2 fold; expression of CD70 mRNA relative to that of beta-actin vs untreated cells [2]: increased the expression of CD70 mRNA; IgG produced by B cells cultured with drug-treated cloned T cells vs untreated T cells [3]: greater amounts of IgG; IgG secreted by B cells cultured with drug-treated T cells vs same numbers of untreated T cells [3]: greater amounts of IgG; increase of CD70 expression on T cell clone TT48E ([5]; 1 μM, P=0.048): 1.69±0.33 fold; increase of CD70 MFI on CD4+ T cells ([5]; 1 μM, P=0.025, n=5): 1.53±0.45 fold; concentration producing the greatest effect on CD70 expression ([5]; range of 5-azaC concentrations, P=0.001 overall, n=5 experiments, FIG. 2B): 1 µM"
"Sc1ncnc2nc[nH]c12 [6-MP, 6-mercaptopurine]",,,,,No increase in CD70 expression,
COc1cccc(-c2cc(=O)c3ccccc3o2)c1N [PD98059],increase CD70 transcripts,appears to demethylate,increase in CD70 expression with treatment,increased CD70 expression,,"increase of CD70 MFI on CD4+ T cells ([5]; 25 μM, P=0.032, n=3): 1.63±0.43 fold"
N#CC(=C(/N)Sc1ccccc1N)/C(C#N)=C(\N)Sc1ccccc1N [U0126],increase CD70 transcripts,appears to demethylate,increase in CD70 expression with treatment,increased CD70 expression,,"expression of CD70 mRNA relative to that of beta-actin vs untreated cells [2]: increased the expression of CD70 mRNA; IgG produced by B cells cultured with drug-treated cloned T cells vs untreated T cells [3]: greater amounts of IgG; IgG secreted by B cells cultured with drug-treated T cells vs same numbers of untreated T cells [3]: greater amounts of IgG; increase of CD70 expression on T cell clone TT48E ([5]; 40 μM, P=0.004): 1.87±0.37 fold; increase of CD70 MFI on CD4+ T cells ([5]; 40 μM, P=0.039, n=4): 3.20±0.44 fold; increase of CD70 MFI in T cells treated with U0126 (FIG. 2I) ([5]; P=0.085, stated in the passage on the smaller CD8+ increase): 2.83±0.95 fold"
CCN(CC)CCCC(C)Nc1ccnc2cc(Cl)ccc12 (stereo not drawn) [chloroquine],,,,,No increase in CD70 expression,
C[C@]12CCC(=O)C=C1CC[C@@H]1[C@@H]2[C@@H](O)C[C@@]2(C)[C@H]1CC[C@]2(O)C(=O)CO [hydrocortisone],,,,,No increase in CD70 expression,
COc1ccc2c(c1)c(CC(=O)O)c(C)n2C(=O)c1ccc(Cl)cc1 [indomethacin],,,,,No increase in CD70 expression,
CCN(CC)CCNC(=O)c1ccc(N)cc1 [procainamide],increase CD70 transcripts,appears to demethylate,increase in the ratio of the mean fluorescence intensity (MFI) of CD70 expression,increased CD70 expression,,"methylation status of the CD70 promoter region from −466-−515 containing 6 CG pairs ([4]; PHA-stimulated CD4+ T cells, FIG. 8): demethylate this region"
